Here are results for 31 molecules from patent publication US7915291B2, “Hepatitis C virus inhibitors” (Bristol-Myers Squibb Company, priority 2002, dated 2011).

Test [1] addresses HCV NS3/4A protease complex, BMS strain (UniProt P27958, C1454S/C1711G, species not given/STRAIN_BMS). In words: Recombinant HCV NS3/4A protease complex FRET peptide assay (BMS strain). The class given is biochemical, HCV genotype 1a. To be noted: NS3/4A BMS strain; read-out: IC50 range. The procedure, abridged:
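Percent inhibition taken from the linear-range fluorescence slope relative to uninhibited control, read kinetically for about 15 min at 25° C. Enzyme (2-3 nM, BMS NS3/4A complex, lysine-tailed, Ni-NTA purified) met compound for 1 min before 2 μM FRET depsipeptide substrate started cleavage.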

Test [2] concerns HCV replicon in Huh7 cells. In words: HCV replicon cell-based assay. The arrangement: species or system HCV strain 1B. To be noted: Hepatitis C virus, Huh-7; HCV replicon, Huh7 cells; read-out: EC50 range. In general terms: In antiviral work, replicon cells carry a viral genome segment that copies itself.

As for `C=CC1C[C@]1(NC(=O)[C@@H]1C[C@@H](Oc2ccnc3c(F)cccc23)CN1C(=O)[C@@H](NC(=O)OC(C)(C)C)C(C)(C)C)C(=O)NS(=O)(=O)C1CC1` (stereo partly drawn) [Compound 241, BOCNH-P3(L-t-BuGly)-P2[(4R)-(8-fluoroquinoline-4-oxo)-S -proline]-P1(1R,2S VinylAcca)-CONHSO2Cyclopropane], the IC50 (usually the concentration needed to halve the response being measured) in test [1] was under 100 nM. In addition, the EC50 – broadly, the concentration that produces a half-maximal response – in test [2] was under 100 nM.
For `C=C[C@@H]1C[C@]1(NC(=O)[C@@H]1CC(Oc2nccc3cc(OC)ccc23)CN1C(=O)[C@@H](NC(=O)N(CC)CC)C(C)(C)C)C(=O)NS(=O)(=O)C1CC1` (some centres unmarked) [Compound 79], the IC50 in test [1] was under 100 nM. The EC50 in test [2] was 100 to 1000 nM.
The like results for `C=CC1C[C@]1(NC(=O)[C@@H]1C[C@@H](Oc2nc(-c3cccnc3)cc3cc(OC)ccc23)CN1C(=O)[C@@H](NC(=O)OC(C)(C)C)C(C)(C)C)C(=O)NS(=O)(=O)C1CC1` (some centres unmarked) [Compound 328] were, in that order, under 100 nM and under 100 nM.
For `C=CC1C[C@]1(NC(=O)[C@@H]1C[C@@H](Oc2ccc3c(Cl)nccc3c2)CN1C(=O)[C@@H](NC(=O)OC(C)(C)C)C(C)(C)C)C(=O)NS(=O)(=O)C1CC1` (stereo partly drawn) [Compound 188, BOCNH-P3(L-tert-BuGly)-P2[(4R)-(1-chloro isoquinolin-6-oxo)-S -proline]-P1(1R,2S Vinyl Acca)-CONHSO2-Cyclopropane], in that order: under 100 nM and 100 to 1000 nM.
Consider `C=C[C@@H]1C[C@]1(NC(=O)[C@@H]1C[C@@H](Oc2nccc3cc(OC)ccc23)CN1C(=O)[C@@H](NC(=O)NC(C)(C)C)C(C)(C)C)C(=O)NS(=O)(=O)C1CCC1` [Compound 383], for which the IC50 in test [1] was under 100 nM. Moreover, the EC50 in test [2] was under 100 nM.
Turning to `C=C[C@@H]1C[C@]1(NC(=O)[C@@H]1C[C@@H](Oc2nccc3c4c(ccc23)OCC4)CN1C(=O)[C@@H](NC(=O)OC(C)(C)C)C(C)(C)C)C(=O)NS(=O)(=O)C1CC1` [Compound 267], the IC50 in test [1] is under 100 nM. For the same molecule, the EC50 in test [2] was under 100 nM.
As for `C=C[C@@H]1C[C@]1(NC(=O)[C@@H]1C[C@@H](Oc2nccc3cc(OC)ccc23)CN1C(=O)[C@@H](NC(=O)N(C)[C@H](C(=O)OC)C(C)C)C(C)(C)C)C(=O)NS(=O)(=O)C1CC1` [Compound 154], the IC50 in test [1] is under 100 nM. Also, the EC50 in test [2] was in the range of 100 to 1000 nM.
Regarding `C=CC1C[C@]1(NC(=O)[C@@H]1C[C@@H](Oc2nnc(-n3cncn3)c3ccccc23)CN1C(=O)[C@@H](NC(=O)OC(C)(C)C)C(C)(C)C)C(=O)NS(=O)(=O)C1CC1` (stereo partly drawn) [Compound 198, BOCNH-P3(L-tert-BuGly)-P2[(4R)-(4-(1,2,4-triazo-1-yl)phthalazine-1-oxo)-S-proline]-P1(1R,2S Vinyl Acca)-CONHSO2-Cyclopropane], the IC50 in test [1] is under 100 nM. The EC50 in test [2] was 100 to 1000 nM.
As to `C=C[C@@H]1C[C@]1(NC(=O)[C@@H]1C[C@@H](Oc2nccc3cc(OC)ccc23)CN1C(=O)[C@@H](NC(=O)OC(C)(C)CC)C(C)(C)C)C(=O)NS(=O)(=O)C1CCC1` [Compound 382], the IC50 in test [1] is under 100 nM. Also, the concentration giving a half-maximal response (EC50) in test [2] was in the range of 100 to 1000 nM.
With `C=CC1CC1(NC(=O)C1CC(Oc2nc(C3CC3)nc3cc(OC)c(OC)cc23)CN1C(=O)[C@@H](NC(=O)OC(C)(C)C)C(C)(C)C)C(=O)NS(=O)(=O)C(C)C` (mixture of isomers) [Compound 46], the IC50 in test [1] lay in the range of 100 to 1000 nM. The EC50 in test [2] lay within 1000 to 10000 nM.
On to `C=C[C@@H]1C[C@]1(NC(=O)[C@@H]1C[C@@H](Oc2cc(-c3ccccn3)nc3cc(OC)ccc23)CN1C(=O)[C@@H](NC(=O)OC(C)(C)C)C(C)(C)C)C(=O)NS(=O)(=O)C1CC1` [Compound 379], for which, in test [1], the IC50 was under 100 nM. Also, the EC50 in test [2] is under 100 nM.
In the case of `C=CC1C[C@]1(NC(=O)[C@@H]1C[C@@H](COc2cccc(Br)c2)CN1C(=O)[C@@H](NC(=O)OC)C(C)(C)C)C(=O)NS(=O)(=O)C1CC1` (some centres unmarked) [Compound 345], in test [1], the IC50 is 1000 to 10000 nM. The EC50 in test [2] fell in the range of 10000 to 100000 nM.
As to `C=CC1C[C@]1(NC(=O)[C@@H]1C[C@@H](COc2cccc(-c3cccs3)n2)CN1C(=O)[C@@H](NC(=O)OC)C(C)(C)C)C(=O)NS(=O)(=O)C1CC1` (some centres unmarked) [Compound 356], in test [1], the IC50 is 100 to 1000 nM. The EC50 in test [2] was in the range of 1000 to 10000 nM.
Turning to `C=C[C@@H]1C[C@]1(NC(=O)[C@@H]1C[C@@H](Oc2cncc(-c3ccncc3)c2)CN1C(=O)[C@@H](NC(=O)OC(C)(C)C)C(C)(C)C)C(=O)NS(=O)(=O)C1CC1` [Compound 422], the IC50 in test [1] is under 100 nM. In test [2], the EC50 was in the range of 1000 to 10000 nM.
Regarding `C=C[C@@H]1C[C@]1(NC(=O)[C@@H]1C[C@@H](Oc2nccc3cc(Cl)ccc23)CN1C(=O)[C@@H](NC(=O)OC(C)(C)C)C(C)(C)C)C(=O)NS(=O)(=O)C1CC1` [Compound 20], in test [1], the IC50 was under 100 nM. For the same molecule, the EC50 in test [2] was 100 to 1000 nM.
For `CC[C@@H]1C[C@]1(NC(=O)[C@@H]1C[C@@H](Oc2nccc3cccc(C)c23)CN1C(=O)[C@@H](NC(=O)OC(C)(C)C)C(C)(C)C)C(=O)NS(=O)(=O)C1CC1` [Compound 297], in that order: 100 to 1000 nM and 1000 to 10000 nM.
In the case of `C=C[C@@H]1C[C@]1(NC(=O)[C@@H]1C[C@@H](Oc2ccnc(-c3ccoc3)c2)CN1C(=O)[C@@H](NC(=O)OC1CCCC1)C(C)(C)C)C(=O)NS(=O)(=O)C1CC1` [Compound 426], the IC50 in test [1] is under 100 nM. In addition, the EC50 in test [2] fell in the range of 100 to 1000 nM.
For `C=C[C@@H]1C[C@]1(NC(=O)[C@@H]1C[C@@H](Oc2nccc3cc(OC)ccc23)CN1C(=O)[C@@H](NC(=O)OC(C)(C)C)C(C)(C)C)C(=O)NS(=O)(=O)C1CC1` [Compound 11], in that order: under 100 nM and under 100 nM.
For the molecule `C=C[C@@H]1C[C@]1(NC(=O)[C@@H]1C[C@@H](Oc2nccc3c4c(ccc23)CCO4)CN1C(=O)[C@@H](NC(=O)OC(C)(C)C)C(C)(C)C)C(=O)NS(=O)(=O)C1CC1` [Compound 265], in test [1], the IC50 was under 100 nM. Further, the EC50 in test [2] was under 100 nM.
Regarding `C=C[C@@H]1C[C@]1(NC(=O)[C@@H]1C[C@@H](Oc2nccc3cc(OC)ccc23)CN1C(=O)[C@@H](NC(=O)OC(C)(C)C)[C@H](C)OC(C)(C)C)C(=O)NS(=O)(=O)C1CC1` [Compound 97], the IC50 in test [1] was under 100 nM. In test [2], the EC50 is under 100 nM.
On to `C=C[C@@H]1C[C@]1(NC(=O)[C@@H]1C[C@@H](Oc2cc(-c3ccccc3)nc(-c3ccc(OC)cc3)c2)CN1C(=O)[C@@H](NC(=O)OC(C)(C)C)C(C)(C)C)C(=O)NS(=O)(=O)C1CC1` [Compound 414], for which the IC50 in test [1] was under 100 nM. Further, the EC50 in test [2] was under 100 nM.
Take `C=C[C@@H]1C[C@]1(NC(=O)[C@@H]1C[C@@H](Oc2nccc3cc(OC)ccc23)CN1C(=O)[C@@H](NC(=O)OC(C)(C)C)[C@H](C)CC)C(=O)NS(=O)(=O)C1CC1` [Compound 13]: the IC50 in test [1] was under 100 nM. For the same molecule, the EC50 in test [2] is under 100 nM.
Regarding `C=CC1C[C@]1(NC(=O)[C@@H]1C[C@@H](Oc2cnc3ccccc3n2)CN1C(=O)[C@@H](NC(=O)OC(C)(C)C)C(C)(C)C)C(=O)NS(=O)(=O)C1CC1` (stereo partly drawn) [Compound 237, BOCNH-P3(L-t-BuGly)-P2[(4R)-(quinoxaline-2-oxo)-S-proline]-P1(1R,2S VinylAcca)-CONHSO2Cyclopropane], the IC50 in test [1] is under 100 nM. In test [2], the EC50 was in the range of 100 to 1000 nM.
In the case of `C=C[C@@H]1C[C@]1(NC(=O)[C@@H]1C[C@@H](Oc2ccnc3cc(OC)ccc23)CN1C(=O)[C@@H](NC(=O)OC(C)(C)C)C(C)C)C(=O)NS(=O)(=O)C1CC1` [Compound 378], the IC50 in test [1] is under 100 nM. Moreover, in test [2], the EC50 is under 100 nM.
For the molecule `C=C[C@@H]1C[C@]1(NC(=O)[C@@H]1C[C@@H](Oc2nccc3c2ccc2occc23)CN1C(=O)[C@@H](NC(=O)OC(C)(C)C)C(C)(C)C)C(=O)NS(=O)(=O)C1CC1` [Compound 268], in test [1], the IC50 is under 100 nM. Further, the EC50 in test [2] is under 100 nM.
In the case of `C=CC1C[C@]1(NC(=O)[C@@H]1C[C@@H](Oc2nsc3ccccc23)CN1C(=O)[C@@H](NC(=O)OC(C)(C)C)C(C)(C)C)C(=O)NS(=O)(=O)C1CC1` (some centres unmarked) [Compound 324], in test [1], the IC50 is under 100 nM. Also, in test [2], the EC50 was 100 to 1000 nM.
The like results for `C=C[C@@H]1C[C@]1(NC(=O)[C@@H]1CC(Oc2nccc3cc(OC)ccc23)CN1C(=O)[C@H](CC(C)C)N(C)C(=O)OC(C)(C)C)C(=O)NS(=O)(=O)C1CC1` (some centres unmarked) [Compound 86] were, in that order, 1000 to 10000 nM and 10000 to 100000 nM.
On to `C=C[C@@H]1CC1(NC(=O)[C@@H]1CC(Oc2nccc3cc(OC)ccc23)CN1C(=O)[C@@H](NC(=O)CO[C@@H]1C[C@H](C)CC[C@H]1C(C)C)C(C)(C)C)C(=O)NS(=O)(=O)C1CC1` (some centres unmarked) [Compound 61], for which, in test [1], the IC50 lay within 100 to 1000 nM. In addition, the EC50 in test [2] is 1000 to 10000 nM.
As to `C=C[C@@H]1C[C@]1(NC(=O)[C@@H]1C[C@@H](Oc2nccc3ccccc23)CN1C(=O)[C@@H](NC(=O)Oc1ccccc1OC)C(C)(C)C)C(=O)NS(=O)(=O)C1CC1` [Compound 127], in test [1], the IC50 was under 100 nM. Further, the EC50 in test [2] was in the range of 100 to 1000 nM.
The like results for `C=CC1C[C@]1(NC(=O)[C@@H]1C[C@@H](Oc2nc3ccccc3nc2O)CN1C(=O)[C@@H](NC(=O)OC(C)(C)C)C(C)(C)C)C(=O)NS(=O)(=O)C1CC1` (stereo partly drawn) [Compound 243, BOCNH-P3(L-t-BuGly)-P2[(4R)-(3-hydroxyquinoxaline-2-oxo)-S -proline]-P1(1R,2S VinylAcca)-CONHSO2Cyclopropane] were, in that order, 100 to 1000 nM and 10000 to 100000 nM.
With `C=CC1C[C@]1(NC(=O)[C@@H]1C[C@@H](Oc2nnc(OCC)c3ccccc23)CN1C(=O)[C@@H](NC(=O)OC(C)(C)C)C(C)(C)C)C(=O)NS(=O)(=O)C1CC1` (stereo partly drawn) [Compound 200, BOCNH-P3(L-t-BuGly)-P2-[(4R)-(4-ethoxyphthalazine-1-oxo)-S-proline]-P1(1R,2S VinylAcca)-CONHSO2Cyclopropane], in test [1], the IC50 was under 100 nM. Further, the EC50 in test [2] is under 100 nM.
